≈ marks a conversion by molar mass, not a printed value.
What was measured:
[1] = Metabolic stability in mouse microsome; conditions: mouse microsome 1 mg/mL, 5 μM compound, 1 mM NADPH
[2] = molecular target: human histamine 3 receptor (hH3R) (Homo sapiens (Human), UniProt Q9Y5N1); assay: Binding affinity of human histamine 3 receptor (hH3R), [3H] labeled N-α-methylhistamine displacement; conditions: hH3R-overexpressed cell membrane, [3H] N-α-methylhistamine
Experimental: 10 μL of the prepared compound solution was allocated in each well of a 96-well plate, and then 10 μL of 200 μM (R)(−)-α-methylhistamine (RaMH) diluted with analysis buffer and 1% of DMSO were transferred to each well to calculate non-specific binding and total binding degree. 15 μg of human histamine 3 receptor-overexpressed cell membrane (PerkinElmer) was diluted with 180 μL of analysis buffer solution (50 mM tris-HCl pH 7.4, 5 mM MgCl2), and that was transferred to each well. [^3H] labeled Na-methylhistamine (PerkinElmer) was diluted into […], 10 μL of that was added to each well, and then it was kept in a 27° C. incubator for 30 minutes. After the reaction, 200 μL of the mixture was transferred to a glass fiber plate in which 0.5% polyethylene amine was presoaked, and then non-binding [^3H] labeled Na-methylhistamine was removed in vacuum. After 5 times washing with 200 μL of washing buffer solution (50 mM tris-HCl, pH 7.4), the plate was dried in a 37° C. oven for 18 hours. 100 μL of betascint cocktail solution was added to each well, and after 1 hour CPM of [^3H] labeled N-α-methylhistamine was measured by using Wallac beta-counter TriLux. The binding affinity (IC50) of the human histamine 3 receptor for the present invention was analyzed by an Excel program, and the results of analysis are shown in Table 2.

[3] = molecular target: human histamine 4 receptor (hH4R) (Homo sapiens (Human), UniProt Q9H3N8); assay: Binding affinity of human histamine 4 receptor (hH4R), [3H] labeled histamine displacement; conditions: hH4R-overexpressed cell membrane, [3H] histamine
Sequence of human histamine 4 receptor (hH4R) (Q9H3N8 whole entry): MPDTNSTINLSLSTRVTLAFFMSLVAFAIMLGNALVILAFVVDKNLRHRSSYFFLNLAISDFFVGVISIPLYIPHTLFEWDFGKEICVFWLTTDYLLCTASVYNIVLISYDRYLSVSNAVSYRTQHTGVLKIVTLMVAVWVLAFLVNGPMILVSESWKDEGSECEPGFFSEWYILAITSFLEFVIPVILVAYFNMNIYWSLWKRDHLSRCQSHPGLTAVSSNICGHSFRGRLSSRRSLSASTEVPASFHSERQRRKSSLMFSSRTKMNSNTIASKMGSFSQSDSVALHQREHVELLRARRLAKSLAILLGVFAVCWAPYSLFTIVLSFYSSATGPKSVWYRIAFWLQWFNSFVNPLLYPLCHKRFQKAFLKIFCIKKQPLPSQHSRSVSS
Experimental: 20 μL of the prepared compound solution was transferred to each well of a 96-well plate, and then 20 μL of 100 μM histamine diluted with analysis buffer solution and 1% DMSO were transferred to each well to calculate non-specific binding and total binding degree. 25 μg of human histamine 4 receptor-overexpressed cell membrane (PerkinElmer) was diluted into 160 μL of analysis buffer solution and that was transferred to each well. [^3H] labeled histamine (PerkinElmer) was diluted into 1 μM concentration, 20 μL was allocated in each well, and then it was kept in a 27° C. incubator for 30 minutes. After the reaction, 200 μL of the mixture was transferred to a glass fiber plate in which 0.5% polyethylene amine was presoaked, and then non-binding [^3H] labeled histamine was removed in vacuum. After 4 times washing with 200 μL of washing buffer solution (50 mM tris-HCl, pH 7.4), the plate was dried in a 37° C. oven for 18 hours. 100 μL of betascint cocktail solution was added to each well, and after 1 hour CPM (count per minute) value of [^3H] labeled histamine was measured by using Wallac beta-counter TriLux.

[4] = Metabolic stability in human microsome; conditions: human microsome 1 mg/mL, 5 μM compound, 1 mM NADPH
[5] = Solubility in artificial gastrointestinal tract solution; type: physicochemical; conditions: artificial gastrointestinal tract solution, thermodynamic from solid; for solubility at 1 h: fassgf or other biorelevant, first solution pH 1.2, 2 mg/mL sample, 37° C. 1 hour; for solubility at 2 h: fassif, second solution pH 6.5, 2 mg/mL sample, 37° C. 2 hours
Experimental: 2.0 g of sodium chloride was added in 7.0 mL of 37% of hydrochloric acid and water to make the total volume of 1 L. The pH was adjusted to exactly 1.2 with 1N sodium hydroxide or 1N hydrochloric acid. A small amount (20 mL) of this solution was taken and added in 25 μL of triton X-100 to make the total volume of 25 mL.
0.348 g sodium hydroxide, 3.438 g NaH2PO4, 6.186 g sodium chloride and water were added to make the total volume of 1 L. The pH was adjusted to exactly 6.5 with 1N sodium hydroxide or 1N hydrochloric acid. A small amount (20 mL) of this solution was taken and 41.25 mg of sodium taurocholate hydrate and 25 μL of 750 mM lecithin dissolved in ethanol was added to make the total volume of 25 mL.
The heated test sample solutions were filtered to remove undissolved compounds therein. Finally, 100 μL of the completely compound-dissolved solution was sampled and 100 μL of CH3CN was added thereto to make the test sample solution. For each analysis of the test sample solution, the solubility was measured by using liquid chromatography.

Sequence of human histamine 3 receptor (hH3R) (Q9Y5N1 whole entry): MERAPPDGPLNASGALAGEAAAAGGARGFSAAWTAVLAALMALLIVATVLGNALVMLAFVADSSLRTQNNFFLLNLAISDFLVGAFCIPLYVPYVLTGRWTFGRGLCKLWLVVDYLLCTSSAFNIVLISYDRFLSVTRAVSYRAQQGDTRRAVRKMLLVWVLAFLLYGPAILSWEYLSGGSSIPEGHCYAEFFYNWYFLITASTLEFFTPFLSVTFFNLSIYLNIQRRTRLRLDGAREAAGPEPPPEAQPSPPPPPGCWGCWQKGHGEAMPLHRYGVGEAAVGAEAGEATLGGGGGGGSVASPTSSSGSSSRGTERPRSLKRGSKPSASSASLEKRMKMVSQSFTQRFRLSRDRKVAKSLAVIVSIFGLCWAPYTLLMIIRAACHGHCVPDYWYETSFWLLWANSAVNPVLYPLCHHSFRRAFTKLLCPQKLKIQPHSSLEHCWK

| Compound | Metabolic stability (CLh. int), Mouse [1] | IC50 [2] | IC50 [3] | Metabolic stability (CLh. int), Human [4] | solubility at 1 h [5] | solubility at 2 h [5] | IC50 ([3]; 2,2,2-trifluoroacetate) |
| --- | --- | --- | --- | --- | --- | --- | --- |
| Clc1cnc2nc(N3C[C@@H]4C[C@H]3CN4)c3nncn3c2c1 [Compound 77, 4-((1S,4S)-2,5-diazabicyclo[2.2.1]heptan-2-yl)-8-chloropyrido[2,3-e][1,2,4]triazolo[4,3-a]pyrazine] | 320 µL/min/mg | > 100 µM | 0.49 µM | 1330 µL/min/mg | – | – | – |
| CNC1CN(c2nc3nc(Cl)c(Cl)cc3n3cnnc23)C1 [Compound 27, 1-(7,8-Dichloropyrido[2,3-e][1,2,4]triazolo[4,3-a]pyrazin-4-yl)-N-methylazetidin-3-amine] | 7270 µL/min/mg | > 100 µM | – | 1240 µL/min/mg | – | – | – |
| CN1CCN(c2nc3ncc(C#N)cc3n3cnnc23)CC1 [Compound 13, 4-(4-Methylpiperazin-1-yl)pyrido[2,3-e][1,2,4]triazolo[4,3-a]pyrazin-8-carbonitrile] | 3070 µL/min/mg | > 100 µM | 0.238 µM | 2710 µL/min/mg | – | – | – |
| N#Cc1cnc2nc(N3CCNCC3)c3nncn3c2c1 [Compound 26, 4-(piperazin-1-yl)pyrido[2,3-e][1,2,4]triazolo[4,3-a]pyrazin-8-carbonitrile] | 6740 µL/min/mg | > 100 µM | 0.22 µM | 2450 µL/min/mg | – | – | – |
| Clc1cnc2nc(N3CCNCC3)n3nc(C4CC4)nc3c2c1 [Compound 39, 9-Chloro-2-cyclopropyl-5-(piperazin-1-yl)pyrido[3,2-e][1,2,4]triazolo[1,5-c]pyrimidine] | 5090 µL/min/mg | > 100 µM | 0.13 µM | 2840 µL/min/mg | – | – | – |
| CN(O)C1CN(c2nc3ncc(Br)cc3n3cnnc23)C1 [Compound 102, N-(1-(8-bromopyrido[2,3-e][1,2,4]triazolo[4,3-a]pyrazin-4-yl)azetidin-3-yl)-N-methylhydroxylamine] | 6780 µL/min/mg | > 100 µM | – | 1990 µL/min/mg | – | – | – |
| CNC1CN(c2nc3ncc(Br)c(C)c3n3cnnc23)C1 [Compound 65, 1-(8-Bromo-9-methylpyrido[2,3-e][1,2,4]triazolo[4,3-a]pyrazin-4-yl)-N-methylazetidin-3-amine] | 6490 µL/min/mg | > 100 µM | 0.73 µM | 3210 µL/min/mg | – | – | – |
| Clc1cc2c(nc1Cl)nc(N1CCNCC1)c1nncn12 [Compound 62, 7,8-Dichloro-4-(piperazin-1-yl)pyrido[2,3-e][1,2,4]triazolo[4,3-a]pyrazine] | 7980 µL/min/mg | > 100 µM | 0.51 µM | 4170 µL/min/mg | – | – | – |
| CN1C[C@@H]2C[C@H]1CN2c1nc2ncc(Cl)cc2n2cnnc12 [Compound 78, 8-Chloro-4-((1S,4S)-5-methyl-2,5-diazabicyclo[2.2.1]heptan-2-yl)pyrido[2,3-e][1,2,4]triazolo[4,3-a]pyrazine] | 1460 µL/min/mg | > 100 µM | 0.43 µM | 2360 µL/min/mg | – | – | – |
| CN1CCN(c2nc3nc(C#N)c(Cl)cc3n3cnnc23)CC1 [Compound 21, 8-Chloro-4-(4-methylpiperazin-1-yl)pyrido[2,3-e][1,2,4]triazolo[4,3-a]pyrazin-7-carbonitrile] | 7130 µL/min/mg | – | 0.27 µM | 4870 µL/min/mg | – | – | – |
| CNC1CN(c2nc3ncc(OC)cc3n3cnnc23)C1 [Compound 58, 1-(8-Methoxypyrido[2,3-e][1,2,4]triazolo[4,3-a]pyrazin-4-yl)-N-methylazetidin-3-amine] | 12740 µL/min/mg | > 100 µM | 0.21 µM | 2800 µL/min/mg | – | – | – |
| CNC1CN(c2nc3ncc(OC(F)F)cc3n3cnnc23)C1 [Compound 59, 1-(8-(Difluoromethoxy)pyrido[2,3-e][1,2,4]triazolo[4,3-a]pyrazin-4-yl)-N-methylazetidin-3-amine] | 1230 µL/min/mg | > 100 µM | 0.89 µM | 1320 µL/min/mg | – | – | – |
| C#Cc1cnc2nc(N3CC(NC)C3)c3nncn3c2c1 [Compound 54, 1-(8-Ethynylpyrido[2,3-e][1,2,4]triazolo[4,3-a]pyrazin-4-yl)-N-methylazetidin-3-amine] | 680 µL/min/mg | > 100 µM | 0.2 µM | 1160 µL/min/mg | – | – | – |
| CN1CCN(c2nc3ncc(Cl)cc3c3nc(C4CC4)nn23)CC1 [Compound 38, 9-Chloro-2-cyclopropyl-5-(4-methylpiperazin-1-yl)pyrido[3,2-e][1,2,4]triazolo[1,5-c]pyrimidine] | 14900 µL/min/mg | > 100 µM | – | 7180 µL/min/mg | – | – | – |
| CNC1CN(c2nc3ncc(Br)cc3n3ccnc23)C1 [Compound 89, 1-(8-Bromoimidazo[1,2-a]pyrido[2,3-e]pyrazin-4-yl)-N-methylazetidin-3-amine] | 10710 µL/min/mg | > 100 µM | 0.36 µM | 3190 µL/min/mg | – | – | – |
| CNC1CN(c2nc3ncc(Br)cc3n3cnnc23)C1.O=C(O)C(F)(F)F [Compound 104, 1-(8-bromopyrido[2,3-e][1,2,4]triazolo[4,3-a]pyrazin-4-yl)-N-methylazetidin-3-amine 2,2,2-trifluoroacetate] | – | > 100 µM | – | – | 1510 µg/mL | 1560 µg/mL | 0.03 µM |
| CN1CCN(c2nc3nc(Cl)c(Cl)cc3n3cnnc23)CC1 [Compound 17, 7,8-Dichloro-4-(4-methylpiperazin-1-yl)pyrido[2,3-e][1,2,4]triazolo[4,3-a]pyrazine] | 17130 µL/min/mg | > 100 µM | 0.177 µM | 5880 µL/min/mg | – | – | – |
| Cn1cc2c(n1)c(N1CCNCC1)nc1ncc(Cl)cc12 [Compound 45, 8-Chloro-2-methyl-4-(piperazin-1-yl)-2H-pyrazolo[3,4-c][1,8]naphthylidine] | 12990 µL/min/mg | > 100 µM | – | 3260 µL/min/mg | – | – | – |
| CN1CCN(c2nc3ncc(C(F)(F)F)cc3n3cnnc23)CC1 [Compound 53, 4-(4-Methylpiperazin-1-yl)-8-(trifluoromethyl)pyrido[2,3-e][1,2,4]triazolo[4,3-a]pyrazine] | 3380 µL/min/mg | – | 0.28 µM | 2340 µL/min/mg | – | – | – |
| CN1CCN(c2nc3ncc(Br)cc3n3cnnc23)CC1 [Compound 12, 8-Bromo-4-(4-methylpiperazin-1-yl)pyrido[2,3-e][1,2,4]triazolo[4,3-a]pyrazine] | 14420 µL/min/mg | – | 0.067 µM | 3730 µL/min/mg | 1930 µg/mL (≈ 5.54 mM) | 679 µg/mL (≈ 1.95 mM) | – |

From US9586959B2, “Substituted tricyclic heterocycles as histamine 4 receptor inhibitors” (C&C RESEARCH LABORATORIES, priority 2011, dated 2017)
